{"source": "patent US20090203671A1", "about": "“METHOD OF TREATING CANCER” (ABBOTT LABORATORIES, priority 2007, published 2009)", "key": {"[1]": {"system": "D54MG glioblastoma multiforme cell line", "assay": "Cell proliferation assay (CellTiter-Glo), Aurora inhibitor combined with TRAIL", "type": "cell-based", "conditions": "Aurora inhibitor at 1 μM combined with TRAIL, 72 h, FIG. 1", "description": "Cells were seeded into 96-well plates at 2,500 cells per well and allowed to adhere overnight. Compounds and TRAIL were added the following day, and cells were incubated at 37° C. for 72 h. […] Percent inhibition of viability was determined relative to cells treated with DMSO alone (0.1%). Data are representative of at least three independent experiments with each data point carried out in triplicate."}, "[2]": {"system": "glioma cell lines where DR5 was induced", "assay": "TRAIL-mediated apoptosis in glioma cell lines after polyploidization", "type": "cell-based", "conditions": "glioma cell lines where DR5 was induced following polyploidization", "description": "To identify candidate apoptosis-sensitizing genes that could be exploited in combination with Aurora kinase inhibitors in malignant glioma, global gene expression analysis in a D54MG glioma cell derivative treated with three Aurora kinases inhibitors chosen for their distinctive selectivities was carried out: MLN8054 (4-((9-chloro-7-(2,6-difluorophenyl)-5H-pyrimidol[5,4-d][2]benzazepin-2-yl)amino)benzoic acid, Aurora-A-selective), AZD1152-HQPA (Aurora-B-selective), and VX-680 (Aurora-A/B). This analysis identified the TRAIL death receptor, DR5, as an apoptosis sensitizing gene induced selectively following inhibition of Aurora-B kinase cancer cells. In glioma cell lines where DR5 was induced following polyploidization, the sensitivity, kinetics, and magnitude of TRAIL-mediated apoptosis were enhanced."}}, "data": [{"molecule": "CCN(CCO)CCCOc1ccc2c(Nc3cc(CC(=O)Nc4cccc(F)c4)[nH]n3)ncnc2c1", "note": "[AZD 1152-HQPA]", "values": [{"measurement": "anti-proliferative effect of combination with TRAIL", "setting": "[1]", "result": "synergistic anti-proliferative effects"}]}, {"molecule": "O=C(O)c1ccc(Nc2ncc3c(n2)-c2ccc(Cl)cc2C(c2c(F)cccc2F)=NC3)cc1", "note": "[MLN-8054, 4-((9-chloro-7-(2,6-difluorophenyl)-5H-pyrimidol[5,4-d][2]benzazepin-2-yl)amino)benzoic acid]", "values": [{"measurement": "anti-proliferative effect of combination with TRAIL", "setting": "[1]", "result": "synergistic anti-proliferative effects"}]}, {"molecule": "Cc1cc(Nc2cc(N3CCN(C)CC3)nc(Sc3ccc(NC(=O)C4CC4)cc3)n2)n[nH]1", "note": "[VX-680/MK0457]", "values": [{"measurement": "anti-proliferative effect of combination with TRAIL", "setting": "[1]", "result": "synergistic anti-proliferative effects"}]}, {"molecule": "TRAIL: tumor necrosis factor (TNF)-related apoptosis inducing ligand; binds death receptors DR4 and DR5 (protein, UniProt P50591 1-281, looked up) Tumor necrosis factor ligand …: MAMMEVQGGPSLGQTCVLIVIFTVLLQSLCVAVTYVYFTNELKQMQDKYSKSGIACFLKEDDSYWDPNDEESMNSPCWQVKWQLRQLVRKMILRTSEETISTVQEKQQNISPLVRERGPQRVAAHITGTRGRSNTLSSPNSKNEKALGRKINSWESSRSGHSFLSNLHLRNGELVIHEKGFYYIYSQTYFRFQEEIKENTKNDKQMVQYIYKYTSYPDPILLMKSARNSCWSKDAEYGLYSIYQGGIFELKENDRIFVSVTNEHLIDMDHEASFFGAFLVG", "values": [{"measurement": "sensitivity, kinetics, and magnitude of TRAIL-mediated apoptosis", "setting": "[2]", "result": "enhanced"}]}]}
